Biological target: full length human BACE1 (Homo sapiens (Human), UniProt P56817)
Assay: BACE1 Scintillation Proximity Binding Assay (SPA)
Conditions: radioligand displacement, HEK cell membranes, pH 6.0
Description: BACE1 Scintillation Proximity Binding Assay (SPA): The BACE1 binding assay measured beta-site amyloid precursor protein-cleaving enzyme (BACE) binding as a decrease in the counts of radioligand bound in a scintillation proximity assay (SPA). […] Full length human BACE1 over-expressed in HEK cells was prepared by Pfizer scientists. Frozen stock cell paste was reacted in 50 mM sodium acetate buffer (pH=6.0) containing 3H-(4aR,6R,8aS)-8a-(2,4-difluorophenyl)-6-(1-methyl-1H-pyrazol-4-yl)-4,4a,5,6,8,8a-hexahydropyrano[3,4-d][1,3]thiazin-2-amine ligand, SPA bead and 60 μM to 600 pM of test compound in an assay volume of 27 uL. The compound plate also contained positive (BACE inhibitor) and negative (DMSO) control wells. The binding was carried out at room temperature for 30 minutes and then the plates were read on a TriLux Microbeta reader to determine the number of counts bound. The raw data was converted to percent effect compared to positive and negative control wells and the compound concentrations and % effect values for tested compounds were plotted to determine the 50% effect (1050) with a four-parameter logistic dose response equation.

Chain of full length human BACE1 (P56817 46-501): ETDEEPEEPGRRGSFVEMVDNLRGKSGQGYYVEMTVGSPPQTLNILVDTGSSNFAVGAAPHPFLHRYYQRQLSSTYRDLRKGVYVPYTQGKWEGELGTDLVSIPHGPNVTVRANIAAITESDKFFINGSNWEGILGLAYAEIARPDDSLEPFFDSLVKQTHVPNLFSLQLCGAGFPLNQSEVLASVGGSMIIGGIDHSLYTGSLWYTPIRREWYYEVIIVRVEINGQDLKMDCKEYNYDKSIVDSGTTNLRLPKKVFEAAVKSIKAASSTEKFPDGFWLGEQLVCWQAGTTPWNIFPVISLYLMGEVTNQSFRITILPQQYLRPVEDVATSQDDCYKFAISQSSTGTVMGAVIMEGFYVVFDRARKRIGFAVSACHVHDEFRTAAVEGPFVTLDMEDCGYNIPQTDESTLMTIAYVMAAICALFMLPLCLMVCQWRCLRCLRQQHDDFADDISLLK

For `NC1=N[C@@]2(c3nc(NC(=O)c4cnc(OC(F)F)cn4)cs3)CO[C@@H](C(F)(F)F)C[C@H]2CO1` [Example 20, N-{2-[(4aR,6R,8aR)-2-amino-6-(trifluoromethyl)-4,4a,5,6-tetrahydropyrano [3,4-d][1,3]oxazin-8a(8H)-yl]-1,3-thiazol-4-yl}-5-(difluoromethoxy)pyrazine-2-carboxamide], the IC50 was 124 nM.

Biological target: BACE1 enzyme (Homo sapiens (Human), UniProt P56817)
Sequence (P56817 46-457): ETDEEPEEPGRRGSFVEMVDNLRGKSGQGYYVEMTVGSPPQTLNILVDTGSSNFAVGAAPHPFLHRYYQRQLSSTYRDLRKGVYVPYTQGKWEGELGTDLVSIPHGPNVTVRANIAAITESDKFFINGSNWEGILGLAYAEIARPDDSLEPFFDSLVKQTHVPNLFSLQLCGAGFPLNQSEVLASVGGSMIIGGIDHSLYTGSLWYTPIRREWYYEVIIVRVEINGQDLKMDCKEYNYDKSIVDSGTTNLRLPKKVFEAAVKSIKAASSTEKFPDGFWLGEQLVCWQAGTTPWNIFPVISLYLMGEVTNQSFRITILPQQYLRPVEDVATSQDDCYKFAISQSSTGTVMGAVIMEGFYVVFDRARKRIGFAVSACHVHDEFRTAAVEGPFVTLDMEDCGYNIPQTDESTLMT
Assay: BACE1 Cell-Free Assay
Assay type: biochemical
Conditions: fluorescence polarization, synthetic APP substrate, pH 4.5
Source text: This assay measures the inhibition of the beta-secretase enzyme as it cleaves a non-native peptide.
A synthetic APP substrate that can be cleaved by beta-secretase having N-terminal biotin and made fluorescent by the covalent attachment of Oregon Green at the Cys residue is used to assay beta-secretase activity in the presence or absence of the inhibitory compounds. […] The BACE1 enzyme is affinity purified material from conditioned media of CHO-K1 cells that have been transfected with a soluble BACE construct (BACE1delta™96His). […] Plates are covered and incubated for 3 hours at 37° C. […] The activity of the beta-secretase enzyme is detected by changes in the fluorescence polarization that occur when the substrate is cleaved by the enzyme.

`C[C@H]1C[C@H]2COC(N)=N[C@@]2(c2nc(NC(=O)c3ccc(OC(F)F)cn3)cs2)CO1` [Example 1, N-(2-((4aR,6S,8aR)-2-amino-6-methyl-4,4a,5,6-tetrahydropyrano[3,4-d][1,3]oxazin-8a(8H)-yl)thiazol-4-yl)-5-(difluoromethoxy)picolinamide] and `C[C@H]1C[C@H]2CCOC(N)=N[C@@]2(c2nc(NC(=O)c3ccc(OC(F)F)cn3)cs2)CO1` [Example 4, N-(2-((5aR,7S,9aR)-2-amino-7-methyl-5,5a,6,7-tetrahydro-4H-pyrano[3,4-d][1,3]oxazepin-9a(9H)-yl)thiazol-4-yl)-5-(difluoromethoxy)picolinamide] are within 1.5-fold of each other in IC50: 214 nM for the first, 146 nM for the second.

`C[C@H]1C[C@H]2COC(N)=N[C@@]2(c2nc(NC(=O)c3ncc(OC(F)F)cc3Cl)cs2)CO1` [Example 2, N-(2-((4aR,6S,8aR)-2-amino-6-methyl-4,4a,5,6-tetrahydropyrano[3,4-d][1,3]oxazin-8a(8H)-yl)thiazol-4-yl)-3-chloro-5-(difluoromethoxy)picolinamide] and `Cc1cc(OC(F)F)cnc1C(=O)Nc1csc([C@]23CO[C@@H](C)C[C@H]2COC(N)=N3)n1` [Example 3, N-(2-((4aR,6S,8aR)-2-amino-6-methyl-4,4a,5,6-tetrahydropyrano[3,4-d][1,3]oxazin-8a(8H)-yl)thiazol-4-yl)-5-(difluoromethoxy)-3-methylpicolinamide] are within 1.5-fold of each other in IC50: 123 nM for the first, 85 nM for the second.

Compared with `Cc1cc(OC(F)F)cnc1C(=O)Nc1csc([C@]23CO[C@@H](C)C[C@H]2CCOC(N)=N3)n1` [Example 5, N-(2-((5aR,7S,9aR)-2-amino-7-methyl-5,5a,6,7-tetrahydro-4H-pyrano[3,4-d][1,3]oxazepin-9a(9H)-yl)thiazol-4-yl)-5-(difluoromethoxy)-3-methylpicolinamide], `Cc1cc(OC(F)F)cnc1C(=O)Nc1csc([C@]23CO[C@@H](C(F)(F)F)C[C@H]2COC(N)=N3)n1` [Example 11a, N-(2-((4aR,6R,8aR)-2-amino-6-(trifluoromethyl)-4,4a,5,6-tetrahydropyrano[3,4-d][1,3]oxazin-8a(8H)-yl)thiazol-4-yl)-5-(difluoromethoxy)-3-methylpicolinamide] is 2.2-fold higher in IC50: 71 nM for the first, 155 nM for the second. The first is the more potent here.

First: C[C@H]1C[C@H]2[C@@H](CF)OC(N)=N[C@@]2(c2nc(NC(=O)c3ccc(OC(F)F)cn3)cs2)CO1 [Example 6, N-(2-((4S,4aR,6S,8aR)-2-amino-4-(fluoromethyl)-6-methyl-4,4a,5,6-tetrahydropyrano[3,4-d][1,3]oxazin-8a(8H)-yl)thiazol-4-yl)-5-(difluoromethoxy)picolinamide]
Second: C[C@H]1C[C@H]2[C@@H](C(F)(F)F)OC(N)=N[C@@]2(c2nc(NC(=O)c3ccc(OC(F)F)cn3)cs2)CO1 [Example 7, N-(2-((4S,4aR,6S,8aR)-2-amino-6-methyl-4-(trifluoromethyl)-4,4a,5,6-tetrahydropyrano[3,4-d][1,3]oxazin-8a(8H)-yl)thiazol-4-yl)-5-(difluoromethoxy)picolinamide]
The IC50 of the first is 2.4-fold higher: 270 nM for the first, 112 nM for the second.

`CC1(C)C[C@H]2COC(N)=N[C@@]2(c2nc(NC(=O)c3ccc(OC(F)F)cn3)cs2)CO1` [Example 8, N-(2-((4aR,8aR)-2-Amino-6,6-dimethyl-4,4a,5,6-tetrahydropyrano[3,4-d][1,3]oxazin-8a(8H)-yl)thiazol-4-yl)-5-(difluoromethoxy)picolinamide] and `Cc1cc(OC(F)F)cnc1C(=O)Nc1csc([C@]23COC(C)(C)C[C@H]2COC(N)=N3)n1` [Example 9, N-(2-((4aR,8aR)-2-amino-6,6-dimethyl-4,4a,5,6-tetrahydropyrano[3,4-d][1,3]oxazin-8a(8H)-yl)thiazol-4-yl)-5-(difluoromethoxy)-3-methylpicolinamide] are within 1.5-fold of each other in IC50: 610 nM for the first, 475 nM for the second.

Going from `NC1=N[C@@]2(c3nc(NC(=O)c4ccc(Cl)cn4)cs3)CO[C@@H](C(F)(F)F)C[C@H]2CO1` [Example 10a, N-(2-((4aR,6R,8aR)-2-amino-6-(trifluoromethyl)-4,4a,5,6-tetrahydropyrano[3,4-d][1,3]oxazin-8a(8H)-yl)thiazol-4-yl)-5-chloropicolinamide] to `NC1=N[C@]2(c3nc(NC(=O)c4ccc(Cl)cn4)cs3)CO[C@H](C(F)(F)F)C[C@@H]2CO1` [Example 10b, N-(2-((4aS,6S,8aS)-2-amino-6-(trifluoromethyl)-4,4a,5,6-tetrahydropyrano[3,4-d][1,3]oxazin-8a(8H)-yl)thiazol-4-yl)-5-chloropicolinamide], the IC50 rises from 310 nM to 16700 nM (54-fold). The first is the more potent here.

First: Cc1cc(OC(F)F)cnc1C(=O)Nc1csc([C@@]23CO[C@H](C(F)(F)F)C[C@@H]2COC(N)=N3)n1 [Example 11b, N-(2-((4aS,6S,8aS)-2-amino-6-(trifluoromethyl)-4,4a,5,6-tetrahydropyrano[3,4-d][1,3]oxazin-8a(8H)-yl)thiazol-4-yl)-5-(difluoromethoxy)-3-methylpicolinamide]
Second: NC1=N[C@@]2(c3nc(NC(=O)c4ncc(OC(F)F)cc4Cl)cs3)CO[C@@H](C(F)(F)F)C[C@H]2CO1 [Example 13a, N-(2-((4aR,6R,8aR)-2-amino-6-(trifluoromethyl)-4,4a,5,6-tetrahydropyrano[3,4-d][1,3]oxazin-8a(8H)-yl)thiazol-4-yl)-3-chloro-5-(difluoromethoxy)picolinamide]
The IC50 of the first is 59-fold higher: 10800 nM for the first, 184 nM for the second.

Going from `NC1=N[C@@]2(c3nc(NC(=O)c4ccc(OC(F)F)cn4)cs3)CO[C@@H](C(F)(F)F)C[C@H]2CO1` [Example 12a, N-(2-((4aR,6R,8aR)-2-amino-6-(trifluoromethyl)-4,4a,5,6-tetrahydropyrano[3,4-d][1,3]oxazin-8a(8H)-yl)thiazol-4-yl)-5-(difluoromethoxy)picolinamide] to `NC1=N[C@]2(c3nc(NC(=O)c4ccc(OC(F)F)cn4)cs3)CO[C@H](C(F)(F)F)C[C@@H]2CO1` [Example 12b, N-(2-((4aS,6S,8aS)-2-amino-6-(trifluoromethyl)-4,4a,5,6-tetrahydropyrano[3,4-d][1,3]oxazin-8a(8H)-yl)thiazol-4-yl)-5-(difluoromethoxy)picolinamide], the IC50 rises from 371 nM to 15000 nM (40-fold).

Going from `NC1=N[C@]2(c3nc(NC(=O)c4ncc(OC(F)F)cc4Cl)cs3)CO[C@H](C(F)(F)F)C[C@@H]2CO1` [Example 13b, N-(2-((4aS,6S,8aS)-2-amino-6-(trifluoromethyl)-4,4a,5,6-tetrahydropyrano[3,4-d][1,3]oxazin-8a(8H)-yl)thiazol-4-yl)-3-chloro-5-(difluoromethoxy)picolinamide] to `NC1=N[C@@]2(c3nc(NC(=O)c4ncc(OC(F)F)cc4Cl)cs3)COC3(CCC3)C[C@H]2CO1` [Example 18, N-(2-((4a′R,8a′R)-2′-amino-4a′,5′-dihydro-4′H-spiro [cyclobutane-1,6′-pyrano[3,4-d][1,3]oxazin]-8a′(8′H)-yl)thiazol-4-yl)-3-chloro-5-(difluoromethoxy) picolinamide], the IC50 falls from 6970 nM to 561 nM (12-fold).

Compared with `Cc1cc(OC(F)F)cnc1C(=O)Nc1csc([C@]23COC4(CCC4)C[C@H]2COC(N)=N3)n1` [Example 15, N-(2-((4a′R,8a′R)-2′-amino-4a′,5′-dihydro-4′H-spiro[cyclobutane-1,6′-pyrano[3,4-d][1,3]oxazin]-8a′(8′H)-yl)thiazol-4-yl)-5-(difluoromethoxy)-3-methyl picolinamide], `Cc1cc(C#N)cnc1C(=O)Nc1csc([C@]23COC4(CCC4)C[C@H]2COC(N)=N3)n1` [Example 19, N-(2-((4a′R,8a′R)-2′-amino-4a′,5′-dihydro-4′H-spiro [cyclobutane-1,6′-pyrano [3,4-d][1,3]oxazin]-8a′(8′H)-yl)thiazol-4-yl)-5-cyano-3-methylpicolinamide] is 2-fold lower in IC50: 370 nM for the first, 185 nM for the second.

Going from `N#Cc1ccc(C(=O)Nc2csc([C@]34COC5(CCC5)C[C@H]3COC(N)=N4)n2)nc1` [Example 16, N-(2-((4a′R,8a′R)-2′-amino-4a′,5′-dihydro-4′H-spiro [cyclobutane-1,6′-pyrano [3,4-d][1,3]oxazin]-8a′(8′H)-yl)thiazol-4-yl)-5-cyano picolinamide] to `NC1=N[C@@]2(c3nc(NC(=O)c4cnc(OC(F)F)cn4)cs3)COC3(CCC3)C[C@H]2CO1` [Example 17, N-(2-((4a′R,8a′R)-2′-amino-4a′,5′-dihydro-4′H-spiro [cyclobutane-1,6′-pyrano [3,4-d][1,3]oxazin]-8a′(8′H)-yl)thiazol-4-yl)-5-(difluoromethoxy)pyrazine-2-carboxamide], the IC50 rises from 395 nM to 2260 nM (5.7-fold). The first is the more potent here.

Same assay, conditions: stated in words; used to assign absolute stereochemistry

For `NC1=N[C@@]2(c3nc(NC(=O)c4ccc(Cl)cn4)cs3)CO[C@@H](C(F)(F)F)C[C@H]2CO1` [Example 10a, N-(2-((4aR,6R,8aR)-2-amino-6-(trifluoromethyl)-4,4a,5,6-tetrahydropyrano[3,4-d][1,3]oxazin-8a(8H)-yl)thiazol-4-yl)-5-chloropicolinamide], the biological activity was “active”.
In the case of `NC1=N[C@]2(c3nc(NC(=O)c4ccc(Cl)cn4)cs3)CO[C@H](C(F)(F)F)C[C@@H]2CO1` [Example 10b, N-(2-((4aS,6S,8aS)-2-amino-6-(trifluoromethyl)-4,4a,5,6-tetrahydropyrano[3,4-d][1,3]oxazin-8a(8H)-yl)thiazol-4-yl)-5-chloropicolinamide], the biological activity is reported as “inactive”.
With `NC1=N[C@@]2(c3nc(NC(=O)c4ncc(OC(F)F)cc4Cl)cs3)CO[C@@H](C(F)(F)F)C[C@H]2CO1` [Example 13a, N-(2-((4aR,6R,8aR)-2-amino-6-(trifluoromethyl)-4,4a,5,6-tetrahydropyrano[3,4-d][1,3]oxazin-8a(8H)-yl)thiazol-4-yl)-3-chloro-5-(difluoromethoxy)picolinamide] the biological activity was “active”.
In the case of `NC1=N[C@]2(c3nc(NC(=O)c4ncc(OC(F)F)cc4Cl)cs3)CO[C@H](C(F)(F)F)C[C@@H]2CO1` [Example 13b, N-(2-((4aS,6S,8aS)-2-amino-6-(trifluoromethyl)-4,4a,5,6-tetrahydropyrano[3,4-d][1,3]oxazin-8a(8H)-yl)thiazol-4-yl)-3-chloro-5-(difluoromethoxy)picolinamide], the biological activity is reported as “inactive”.

Reference: patent US9771379B2, “N-(2-(2-amino-6-substituted-4,4a,5,6-tetrahydropyrano[3,4-d][1,3]OXAZIN-8a(8H)-yl)-thiazol-4-yl) amides” (Pfizer Inc., priority 2015, dated 2017)
